Active and inactive are the calls of the source. The rule behind the calls is not given here.

Data set [1] in a line: Antioxidant activity assessed as DPPH radical scavenging capacity at 1 mM incubated for 30 mins under dark condition by absorbance based assay. It counts as functional.
In data set [2] the test system is Erythrocyte. The data set can be described thus: Antioxidant activity in H2O2-induced mouse RBC cells assessed as inhibition of methemoglobin formation at 0.01 mM preincubated with compound for 30 mins followed by H2O2 addition and measured after 5 hrs. The note with it: time 5.5 hrs. In kind it is functional, cell-based.
The species entered for data set [3] is Mus musculus. The data set can be described thus: Antioxidant activity in mouse brain homogenate assessed as inhibition of FeSO4/ascorbic acid induced lipid autoxidation by measuring reduction in TBARS formation at 0.1 mM preincubated with compound for 30 mins followed by FeSO4/ascorbic acid addition and measured after 1 hrs by TBARS assay. In kind it is functional. The note with it: time 1.5 hrs.

Data set [4] can be described thus: Antioxidant activity assessed as DPPH radical scavenging capacity at 0.1 mM incubated for 30 mins under dark condition by absorbance based assay. It counts as functional.
The test system of data set [5] is Erythrocyte. The data set can be described thus: Antioxidant activity in mouse RBC assessed as inhibition of H2O2-induced hemolytic activity at 0.1 mM preincubated with compound for 30 mins followed by H2O2 addition and measured after 5 hrs. It counts as functional, cell-based. The conditions noted are these: time 5.5 hrs.
Data set [6] relates to Erythrocyte. The data set can be described thus: Antioxidant activity in H2O2-induced mouse RBC cells assessed as inhibition of ferryl-hemoglobin formation at 0.01 mM preincubated with compound for 30 mins followed by H2O2 addition and measured after 5 hrs. It counts as functional, cell-based. The note with it: time 5.5 hrs.
For data set [7], the species on record is Mus musculus. Kind of data set: Antioxidant activity in mouse brain homogenate assessed as inhibition of FeSO4/ascorbic acid induced lipid autoxidation by measuring reduction in TBARS formation at 1 mM preincubated with compound for 30 mins followed by FeSO4/ascorbic acid addition and measured after 1 hrs by TBARS assay. It counts as functional. The note with it: time 1.5 hrs.

In data set [8] the test system is Erythrocyte. Kind of data set: Antioxidant activity in mouse RBC assessed as inhibition of H2O2-induced hemolytic activity at 0.01 mM preincubated with compound for 30 mins followed by H2O2 addition and measured for 5 hrs. The note with it: time 5.5 hrs. In kind it is functional, cell-based.
Data set [9] is filed under the species Mus musculus. The data set can be described thus: Antioxidant activity in mouse brain homogenate assessed as inhibition of FeSO4/ascorbic acid induced lipid autoxidation by measuring reduction in TBARS formation at 0.5 mM preincubated with isopropanol for 30 mins followed by compound addition for 30 mins and measured 1 hrs after FeSO4/ascorbic acid addition by TBARS assay. In kind it is functional. The conditions noted are these: time 1.5 hrs.

A short description of data set [10]: Hemolytic activity in mouse RBC assessed as hemolysis at 0.1 mM measured after 5 hrs. It counts as toxicity, cell-based, Erythrocyte. The conditions noted are these: mouse red blood cells, read-out: Activity.
Data set [11] concerns Erythrocyte. The data set can be described thus: Antioxidant activity in H2O2-induced mouse RBC assessed as inhibition of lipid peroxidation by measuring MDA formation at 0.01 mM preincubated with compound for 30 mins followed by H2O2 addition and measured after 4 hrs by spectrophotometric analysis. It counts as functional, cell-based. The note with it: time 4.5 hrs.
Data set [12] has as its system Erythrocyte. Kind of data set: Antioxidant activity in H2O2-induced mouse RBC cells assessed as reduction in metHB/oxyHB ratio at 0.01 mM preincubated with compound for 30 mins followed by H2O2 addition and measured after 5 hrs. In kind it is functional, cell-based. The conditions noted are these: time 5.5 hrs.
In data set [13] the test system is Erythrocyte. The data set can be described thus: Antioxidant activity in mouse RBC assessed as inhibition of H2O2-induced hemolytic activity at 0.01 mM preincubated with compound for 30 mins followed by H2O2 addition and measured at 1 to 3 hrs. It counts as functional, cell-based. The note with it: time 1.5-3.5 hrs.

Consider `C=CCc1ccc(OC)cc1`, for which the Activity in [1] came out at 1.16%; in data set [4], 0.25%. The outcome in data set [2], in [6], in data set [7] and in data set [8] was Active. For the same molecule, the outcome in data set [3] and in [5] was inactive.
With `C=CCc1cc(OC)c2c(c1)OCO2` [ELEMICIN], the Activity came out at 5.25% in data set [1] and 1.31% in data set [4]. Further, the result in data set [2], in data set [3], in data set [5], in [6], in data set [7] and in data set [8] was Active. Besides, the result in data set [9] was inactive.
Turning to `C=CCc1ccc2c(c1)OCO2` [SAFROLE], the Activity in data set [1] was 10.6%; in data set [4], 1.26%. Further, the result in [2], in data set [6], in data set [7] and in data set [8] was Active. The outcome in [3] and in data set [5] was inactive. Besides, the hemolysis at 5 h, 100 µM in [10] was not above 10%.
On to `Cc1c(C)c2c(c(C)c1O)CCC(C)(C(=O)O)O2` (stereo unspecified), for which the result in data set [3] was Active. The Activity in data set [4] was 94.9%.
As for `C=CCc1cc(OC)c2c(c1OC)OCO2` [APIOL], the Activity was found to be 0.3% in data set [1] and 0.05% in data set [4]. Moreover, the result in data set [2], in [3], in [6], in data set [7] and in [8] was Active. Moreover, the outcome in data set [5] and in data set [9] was inactive. Moreover, in data set [10], the hemolysis at 5 h, 100 µM is not above 10%.
Consider `C=CCc1cc(OC)c(OC)c(OC)c1OC`, for which the Activity turned out to be 1.47% in data set [1] and 0.1% in data set [4]. Further, the outcome in [2], in data set [6], in data set [7] and in data set [8] was Active. Also, the result in data set [3] and in data set [5] was inactive.
Consider `C=CCc1ccccc1`, for which the Activity amounted to 4.29% in data set [1] and 1.01% in data set [4]. Moreover, the result in data set [2], in [6], in data set [7] and in [8] was Active. The outcome in data set [3] and in data set [5] was inactive.
For the molecule `C=CCc1c(OC)c(OC)c2c(c1OC)OCO2`, the values for the Activity in data set [1] and in data set [4] were 4.3% and 0.91%, respectively. Further, the result in data set [3] and in [7] was Active. Besides, the result in data set [11], in data set [8] and in data set [9] was inactive.
On to `Cc1cc(C(C)(C)C)c(O)c(C(C)(C)C)c1`, for which the result in [2], in data set [3], in data set [6], in [11] and in data set [12] was Active. In [4], the Activity was found to be 72%.
For `C=CCc1cc2c(c(OC)c1OC)OCO2` [DILLAPIOLE], the Activity in [1] came to 3.94%; in [4] it was 0.38%. In addition, the outcome in data set [2], in data set [3], in data set [5], in data set [6], in data set [7] and in data set [12] was Active. Besides, the result in data set [8] was Active. The hemolysis at 5 h, 100 µM in [10] is not above 10%. In addition, the outcome in data set [9] was inactive.
Turning to `C=CCc1c(O)c(OC)c2c(c1OC)OCO2`, the result in [13], in data set [3], in [11], in data set [7] and in data set [8] was Active. The Activity in data set [1] was 90.2%; in data set [4], 88.9%. Moreover, the outcome in data set [9] was inactive.
